Assay results taken from paper PMC10258794, “To Fold or Not to Fold: Diastereomeric Optimization of an α-Helical Antimicrobial Peptide” (Journal of Medicinal Chemistry, 2023).
In brackets after ≈: the same amount, converted by molar mass. Read-outs that look alike come from different tables or passages of the source.

How the values were obtained:
[1] = tested on: A. baumannii ATCC19606
Procedure: (§1) Antimicrobial activity was determined for all peptides on E. coli W3110, P. aeruginosa PAO1, A. baumannii ATCC19606, K. pneumoniae NCTC418, and methicillin-resistant S. aureus COL and for selected peptides on P. aeruginosa PA14 and the polymyxin B-resistant derivatives PA14 4.13, PA14 4.18, and PA14 2P4 as well as the clinical isolates ZEM-1A and ZEM9A, K. pneumoniae OXA-48, Enterobacter cloacae, Stenotrophomonas maltophilia, B. cenocepacia, and Staphylococus epidermis. To determine the MIC, the broth microdilution method was used.[75] A single bacterial colony was grown in LB medium overnight at 37 °C and 180 rpm shaking. The compounds were prepared as stock solutions of 2 mg/mL in sterilized milliQ deionized water, added to the first well of 96-well sterile, polypropylene round-bottom microtiter plates (TPP, untreated, Corning Incorporated, Kennebunk, USA), and diluted serially by 1/2. […] The bacterial inoculum was prepared by measuring the absorbance of the overnight culture, which was diluted to concentration of the bacteria was quantified by measuring absorbance at 600 nm and diluted to an OD600 of 0.022 in MH medium pH 7.4 (Sigma-Aldrich, Buchs, Switzerland). The sample solutions (150 μL) were mixed with 4 μL of diluted bacterial suspension with a final inoculation of about 5 × 10^5 CFU. For each test, two columns of the plate were kept for sterility control (MH medium only) and growth control (MH medium with bacterial inoculum, no compound). […] The plates were incubated at 37 °C for 16–20 h under static conditions. 15 μL of 3-(4,5-dimethylthiazol-2-yl)-2,5-diphenyltetrazolium bromide (MTT)[76] (1 mg/mL in sterilized milliQ deionized water) was added to each well, and the plates were incubated at room temperature until MTT staining was completed. The MIC was defined as the lowest concentration of the dendrimer that inhibits the visible growth of the tested bacteria (yellow) with the unaided eye.

[2] = tested on: P. aeruginosa PAO1
Procedure: as §1

[3] = tested on: E. coli W3110
Procedure: as §1

[4] = tested on: K. pneumoniae NCTC418
Procedure: as §1

[5] = tested on: S. aureus COL MRSA; settings: for MIC S. aureus COL MRSA: MH broth pH 7.4, 16–20 h, 37 °C; for MIC S. aureus COL: supplementary CSV, ranges of Table 1 given as one number
Procedure: as §1

[6] = MH broth pH 7.4, 16–20 h, 37 °C
[7] = supplementary CSV, ranges of Table 1 given as one number

| Structure (SMILES) | MIC A. baumannii ATCC19606 [1, 6] | MIC A. baumannii ATCC19606 [1, 7] | MIC P. aeruginosa PAO1 [2, 6] | MIC P. aeruginosa PAO1 [2, 7] | MIC E. coli W3110 [3, 6] | MIC K. pneumoniae NCTC418 [4, 6] | MIC S. aureus COL MRSA [5] | MIC S. aureus COL [5] | MIC E. coli W3110 [3, 7] | MIC K. pneumoniae NCTC418 [4, 7] |
| --- | --- | --- | --- | --- | --- | --- | --- | --- | --- | --- |
| CC(C)C[C@H](NC(=O)[C@H](CC(C)C)NC(=O)[C@@H](CC(C)C)NC(=O)[C@@H](CCCCN)NC(=O)[C@H](CC(C)C)NC(=O)[C@H](CC(C)C)NC(=O)[C@H](CCCCN)NC(=O)[C@@H](CC(C)C)NC(=O)[C@@H](CC(C)C)NC(=O)[C@H](CCCCN)NC(=O)[C@@H](N)CCCCN)C(N)=O [HP20, KKllKLLklLL] | 32 to 64 µg/mL | 48 µg/mL (≈ 36.3 µM) | 16 µg/mL (≈ 12.1 µM) | 16 µg/mL (≈ 12.1 µM) | 8 µg/mL (≈ 6.05 µM) | >64 µg/mL | >64 µg/mL |  |  |  |
| CC(C)C[C@H](NC(=O)[C@H](CC(C)C)NC(=O)[C@H](CC(C)C)NC(=O)[C@H](CCCCN)NC(=O)[C@@H](CC(C)C)NC(=O)[C@@H](CC(C)C)NC(=O)[C@@H](CCCCN)NC(=O)[C@H](CC(C)C)NC(=O)[C@H](CC(C)C)NC(=O)[C@H](CCCCN)NC(=O)[C@@H](N)CCCCN)C(N)=O [HP9, KKLLkllKLLL] |  |  | 64 µg/mL (≈ 48.4 µM) | 64 µg/mL (≈ 48.4 µM) | 8 µg/mL (≈ 6.05 µM) | >64 µg/mL | >64 µg/mL |  |  |  |
| CC(C)C[C@H](NC(=O)[C@H](CC(C)C)NC(=O)[C@@H](CCCCN)NC(=O)[C@H](CC(C)C)NC(=O)[C@H](CC(C)C)NC(=O)[C@@H](CCCCN)NC(=O)[C@H](CC(C)C)NC(=O)[C@H](CC(C)C)NC(=O)[C@@H](CCCCN)NC(=O)[C@H](N)CCCCN)C(=O)N[C@H](CC(C)C)C(N)=O [HP27, kkLLkLLkLLl] | 32 µg/mL (≈ 24.2 µM) | 32 µg/mL (≈ 24.2 µM) | 8 µg/mL (≈ 6.05 µM) | 8 µg/mL (≈ 6.05 µM) | 4 µg/mL (≈ 3.03 µM) | >64 µg/mL | 32 µg/mL (≈ 24.2 µM) | 32 µg/mL (≈ 24.2 µM) |  |  |
| CC(C)C[C@H](NC(=O)[C@H](CC(C)C)NC(=O)[C@H](CC(C)C)NC(=O)[C@H](CCCCN)NC(=O)[C@@H](CC(C)C)NC(=O)[C@@H](CC(C)C)NC(=O)[C@H](CCCCN)NC(=O)[C@@H](CC(C)C)NC(=O)[C@@H](CC(C)C)NC(=O)[C@H](CCCCN)NC(=O)[C@@H](N)CCCCN)C(N)=O [HP14, KKllKllKLLL] | 4 to 8 µg/mL | 6 µg/mL (≈ 4.54 µM) | 8 µg/mL (≈ 6.05 µM) | 8 µg/mL (≈ 6.05 µM) | 2 µg/mL (≈ 1.51 µM) | >64 µg/mL | 16 to 32 µg/mL |  |  |  |
| CC(C)C[C@H](NC(=O)[C@H](CC(C)C)NC(=O)[C@H](CC(C)C)NC(=O)[C@H](CCCCN)NC(=O)[C@H](CC(C)C)NC(=O)[C@@H](CC(C)C)NC(=O)[C@H](CCCCN)NC(=O)[C@@H](CC(C)C)NC(=O)[C@@H](CC(C)C)NC(=O)[C@@H](CCCCN)NC(=O)[C@@H](N)CCCCN)C(N)=O [HP12, KkllKlLKLLL] | 8 µg/mL (≈ 6.05 µM) | 8 µg/mL (≈ 6.05 µM) | 4 to 8 µg/mL | 6 µg/mL (≈ 4.54 µM) | 2 to 4 µg/mL | 8 to 16 µg/mL | 4 µg/mL (≈ 3.03 µM) | 4 µg/mL (≈ 3.03 µM) | 3 µg/mL (≈ 2.27 µM) |  |
| CC(C)C[C@H](NC(=O)[C@H](CC(C)C)NC(=O)[C@H](CC(C)C)NC(=O)[C@H](CCCCN)NC(=O)[C@@H](CC(C)C)NC(=O)[C@@H](CC(C)C)NC(=O)[C@H](CCCCN)NC(=O)[C@H](CC(C)C)NC(=O)[C@H](CC(C)C)NC(=O)[C@H](CCCCN)NC(=O)[C@@H](N)CCCCN)C(N)=O [HP6, KKLLKllKLLL] | 4 µg/mL (≈ 3.03 µM) | 4 µg/mL (≈ 3.03 µM) | 8 µg/mL (≈ 6.05 µM) | 8 µg/mL (≈ 6.05 µM) | 2 µg/mL (≈ 1.51 µM) | 64 µg/mL (≈ 48.4 µM) | 16 µg/mL (≈ 12.1 µM) | 16 µg/mL (≈ 12.1 µM) |  | 64 µg/mL (≈ 48.4 µM) |
| CC(C)C[C@@H](NC(=O)[C@@H](CC(C)C)NC(=O)[C@@H](CC(C)C)NC(=O)[C@@H](CCCCN)NC(=O)[C@@H](CC(C)C)NC(=O)[C@@H](CC(C)C)NC(=O)[C@@H](CCCCN)NC(=O)[C@@H](CC(C)C)NC(=O)[C@@H](CC(C)C)NC(=O)[C@@H](CCCCN)NC(=O)[C@H](N)CCCCN)C(N)=O [dln65, kkllkllklll] | 4 µg/mL (≈ 3.03 µM) | 4 µg/mL (≈ 3.03 µM) | 2 to 4 µg/mL | 3 µg/mL (≈ 2.27 µM) | 2 to 4 µg/mL | 4 µg/mL (≈ 3.03 µM) | 2 to 4 µg/mL | 3 µg/mL (≈ 2.27 µM) | 3 µg/mL (≈ 2.27 µM) | 4 µg/mL (≈ 3.03 µM) |
| CC(C)C[C@H](NC(=O)[C@H](CCCCN)NC(=O)[C@H](CC(C)C)NC(=O)[C@H](CC(C)C)NC(=O)[C@@H](CCCCN)NC(=O)[C@H](N)CCCCN)C(=O)N[C@@H](CC(C)C)C(=O)N[C@@H](CCCCN)C(=O)N[C@@H](CC(C)C)C(=O)N[C@H](CC(C)C)C(=O)N[C@H](CC(C)C)C(N)=O [HP18, kkLLKLLKLll] | 8 µg/mL (≈ 6.05 µM) | 8 µg/mL (≈ 6.05 µM) | 8 µg/mL (≈ 6.05 µM) | 8 µg/mL (≈ 6.05 µM) | 4 to 8 µg/mL | >64 µg/mL | 16 to 32 µg/mL |  | 6 µg/mL (≈ 4.54 µM) |  |
| CC(C)C[C@H](NC(=O)[C@H](CC(C)C)NC(=O)[C@@H](CCCCN)NC(=O)[C@H](CC(C)C)NC(=O)[C@H](CC(C)C)NC(=O)[C@@H](CCCCN)NC(=O)[C@@H](CC(C)C)NC(=O)[C@H](CC(C)C)NC(=O)[C@H](CCCCN)NC(=O)[C@@H](N)CCCCN)C(=O)N[C@H](CC(C)C)C(N)=O [HP23, KKLlkLLkLLl] |  |  | 4 to 8 µg/mL | 6 µg/mL (≈ 4.54 µM) | 2 µg/mL (≈ 1.51 µM) | >64 µg/mL | 32 µg/mL (≈ 24.2 µM) | 32 µg/mL (≈ 24.2 µM) |  |  |
| CC(C)CC(NC(=O)C(CC(C)C)NC(=O)C(CC(C)C)NC(=O)C(CCCCN)NC(=O)C(CC(C)C)NC(=O)[C@H](CC(C)C)NC(=O)C(CCCCN)NC(=O)C(CC(C)C)NC(=O)C(CC(C)C)NC(=O)C(CCCCN)NC(=O)C(N)CCCCN)C(N)=O (mixture of isomers) [sr-ln65L^6] | 8 µg/mL (≈ 6.05 µM) | 8 µg/mL (≈ 6.05 µM) | 8 µg/mL (≈ 6.05 µM) | 8 µg/mL (≈ 6.05 µM) | 4 µg/mL (≈ 3.03 µM) | 16 to 32 µg/mL | 16 µg/mL (≈ 12.1 µM) | 16 µg/mL (≈ 12.1 µM) |  |  |
